Experimental data: ChEMBL document CHEMBL1201862, “PubChem BioAssay data set” (2004)
Activity calls are given as the source filed them.

Key:
[1] = target: Fructose-bisphosphate aldolase (Mycobacterium tuberculosis, UniProt P9WQA3); experiment: Fluorescence-based biochemical high throughput dose response assay for inhibitors of the fructose-bisphosphate aldolase (FBA) of M. tuberculosis.; assay type: functional
Cytochrome P450 2C9 = Cytochrome P450 2C9 (Homo sapiens, UniProt P11712)
Cytochrome P450 2C19 = Cytochrome P450 2C19 (Homo sapiens, UniProt P33261); experiment: Cytochrome panel assay with activity outcomes. Panel member name: p450-cyp2c19 Compounds with AC50 equal or less than 10 uM are considered active; assay type: functional; settings: read-out: AC50
[2] = target: T1, Oxysterols receptor LXR-beta (Homo sapiens, UniProt P55055); assay type: functional, cell-based
T1 sequence (P55055 whole entry): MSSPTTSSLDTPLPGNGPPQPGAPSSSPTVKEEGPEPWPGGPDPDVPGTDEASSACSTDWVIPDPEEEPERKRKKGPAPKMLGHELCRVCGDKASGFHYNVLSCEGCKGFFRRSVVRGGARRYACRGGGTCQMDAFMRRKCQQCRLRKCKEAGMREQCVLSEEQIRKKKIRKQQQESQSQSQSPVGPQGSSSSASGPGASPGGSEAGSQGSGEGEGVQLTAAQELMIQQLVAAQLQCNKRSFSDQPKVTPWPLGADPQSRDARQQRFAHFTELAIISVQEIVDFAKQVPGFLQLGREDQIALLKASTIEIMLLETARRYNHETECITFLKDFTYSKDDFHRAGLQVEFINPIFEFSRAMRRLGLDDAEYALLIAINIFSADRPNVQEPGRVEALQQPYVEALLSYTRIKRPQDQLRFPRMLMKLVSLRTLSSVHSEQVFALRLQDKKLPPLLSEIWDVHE

[3] = general mammalian cell viability loss – activator set, cherry-pick, cytotoxicity control for miR-122 modulator project, dose response (AID 720690); assay type: functional, cell-based;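 also: HEK293T human cells scored for general mammalian cytotoxicity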
cells [4] = assay type: functional, cell-based
[5] = target: T2, Nuclear receptor subfamily 0 group B member 1 (Homo sapiens, UniProt P51843); assay type: functional, cell-based;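 also: HEK293T cells transfected with SF-1 and DAX-1 plus StAR promoter luciferase reporter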
T2 sequence (P51843 whole entry): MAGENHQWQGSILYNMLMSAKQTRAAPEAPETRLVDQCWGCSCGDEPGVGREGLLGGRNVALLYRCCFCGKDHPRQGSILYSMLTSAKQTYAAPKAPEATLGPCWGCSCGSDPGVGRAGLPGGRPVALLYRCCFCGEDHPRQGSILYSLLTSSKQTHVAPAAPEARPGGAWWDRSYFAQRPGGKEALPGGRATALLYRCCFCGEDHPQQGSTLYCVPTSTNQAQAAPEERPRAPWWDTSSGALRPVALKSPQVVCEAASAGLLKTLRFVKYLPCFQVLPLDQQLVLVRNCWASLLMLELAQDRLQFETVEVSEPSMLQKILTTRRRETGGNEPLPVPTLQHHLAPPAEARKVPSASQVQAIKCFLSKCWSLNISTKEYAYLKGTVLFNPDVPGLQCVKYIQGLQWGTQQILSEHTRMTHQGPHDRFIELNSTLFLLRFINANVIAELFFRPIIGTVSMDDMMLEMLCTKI

[6] = target: Disintegrin and metalloproteinase domain-containing protein 17 (Homo sapiens, UniProt P78536); experiment: inhibition of ADAM17 substrate cleavage – biochemical, quenched FRET substrate, counter-screen for ADAM10 exosite inhibitor project, dose response (AID 743253)
[7] = non-specific 3'UTR reporter inhibition in Clone20-Shn3RL – cell-based, Renilla luciferase, cherry-picked, counter-screen for Shn3 inhibitor project, dose response (AID 624133); assay type: functional
[8] = loss of viability in HepG2 cells – cell-based, CellTiter-Glo, cherry-picked, cytotoxicity control for Shn3 inhibitor project, dose response (AID 624134); assay type: functional
[9] = reduction of Shn3 3'UTR-driven luciferase in osteoblasts – cell-based, Clone20 osteoblasts, firefly luciferase, cherry-picked, dose response (AID 624132); assay type: functional;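 also: firefly luciferase luminescence from reporter carrying the Shn3 3'UTR in osteoblasts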
[10] = Luminescence Cell-Based Dose Retest to Confirm Inhibitors of Cancer Stem Cells. [Related pubchem assays (depositor defined):AID2717, AID2721]; assay type: functional; settings: Homo sapiens
[11] = potency of ADAM10 substrate cleavage blockers – biochemical, QFRET, dose response (AID 743254);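 also: ADAM10 enzyme with the DM2 quenched FRET peptide as substrate; EDANS fluorescence gain as the protease cuts the substrate; inhibitor potency against ADAM10 proteolytic activity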
[12] = target: FAD-linked sulfhydryl oxidase ALR (Homo sapiens, UniProt P55789); experiment: ALR-catalysed DTT oxidation blockers – biochemical, H2O2 detection, luminescence, cherry-pick, dose response (AID 493248)
[13] = general cell-killing toxicity readout – plate reader, dry powder samples, cytotoxicity control for PAX8 inhibitor project, dose response (AID 743021); assay type: functional, cell-based
Paired box protein Pax-8 = Paired box protein Pax-8 (Homo sapiens, UniProt Q06710); experiment: PAX8 transcriptional activity inhibition in RMG-I – RMG-I cells, luciferase, cherry-pick, dose response (AID 687027); assay type: functional, cell-based;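 also: luciferase reporter driven by Pax8 target thyroperoxidase promoter measured by SteadyGlo luminescence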
[14] = target: T3, Latent membrane protein 1 (Human herpesvirus 4 (strain B95-8), UniProt P03230); experiment: LMP1 TES1 pathway selectivity over dsRED control – imaging, HEK293T, dual-color eGFP/dsRED, cherry-picks, selectivity assay for LMP1 NF-kB inhibitor project, dose response (AID 588398); assay type: functional, cell-based
T3 sequence (P03230 whole entry): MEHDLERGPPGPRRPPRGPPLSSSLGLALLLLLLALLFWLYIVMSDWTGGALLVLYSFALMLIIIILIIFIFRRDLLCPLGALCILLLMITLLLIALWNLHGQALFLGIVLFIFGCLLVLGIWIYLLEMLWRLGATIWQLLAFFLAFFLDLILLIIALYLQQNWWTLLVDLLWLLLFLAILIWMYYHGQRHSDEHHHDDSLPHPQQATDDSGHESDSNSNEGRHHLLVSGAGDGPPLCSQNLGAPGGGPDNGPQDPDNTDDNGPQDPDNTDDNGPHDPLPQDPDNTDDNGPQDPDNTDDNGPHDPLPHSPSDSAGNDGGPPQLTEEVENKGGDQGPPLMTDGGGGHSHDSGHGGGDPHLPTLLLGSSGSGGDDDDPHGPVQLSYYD

[15] = target: Endoplasmic reticulum aminopeptidase 1 (Homo sapiens, UniProt Q9NZ08); experiment: inhibition of human ERAP1 enzyme activity – biochemical, cherry-pick, set 2, plate reader, dose response (AID 743314)
HEK293 = experiment: EBV LMP1 TES2 canonical NF-kB signalling blockers – cell-based, HEK293, luciferase, cherry-pick, dose response (AID 588343); assay type: functional; settings: Homo sapiens
cells [16] = experiment: cells
[17] = target: T1, Oxysterols receptor LXR-beta; assay type: functional, cell-based; remark: listed apart in the source

Chain of Fructose-bisphosphate aldolase (P9WQA3 whole entry): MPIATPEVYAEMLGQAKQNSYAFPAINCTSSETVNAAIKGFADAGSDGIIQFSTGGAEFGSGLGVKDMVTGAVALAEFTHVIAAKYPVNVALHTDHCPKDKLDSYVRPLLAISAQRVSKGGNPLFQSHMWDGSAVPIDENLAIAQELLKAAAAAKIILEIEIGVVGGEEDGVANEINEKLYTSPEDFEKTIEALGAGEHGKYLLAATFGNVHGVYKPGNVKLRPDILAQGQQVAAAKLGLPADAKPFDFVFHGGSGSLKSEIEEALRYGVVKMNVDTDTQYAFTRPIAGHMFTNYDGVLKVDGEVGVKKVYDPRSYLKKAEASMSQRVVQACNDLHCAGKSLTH
Chain of Endoplasmic reticulum aminopeptidase 1 (Q9NZ08 whole entry): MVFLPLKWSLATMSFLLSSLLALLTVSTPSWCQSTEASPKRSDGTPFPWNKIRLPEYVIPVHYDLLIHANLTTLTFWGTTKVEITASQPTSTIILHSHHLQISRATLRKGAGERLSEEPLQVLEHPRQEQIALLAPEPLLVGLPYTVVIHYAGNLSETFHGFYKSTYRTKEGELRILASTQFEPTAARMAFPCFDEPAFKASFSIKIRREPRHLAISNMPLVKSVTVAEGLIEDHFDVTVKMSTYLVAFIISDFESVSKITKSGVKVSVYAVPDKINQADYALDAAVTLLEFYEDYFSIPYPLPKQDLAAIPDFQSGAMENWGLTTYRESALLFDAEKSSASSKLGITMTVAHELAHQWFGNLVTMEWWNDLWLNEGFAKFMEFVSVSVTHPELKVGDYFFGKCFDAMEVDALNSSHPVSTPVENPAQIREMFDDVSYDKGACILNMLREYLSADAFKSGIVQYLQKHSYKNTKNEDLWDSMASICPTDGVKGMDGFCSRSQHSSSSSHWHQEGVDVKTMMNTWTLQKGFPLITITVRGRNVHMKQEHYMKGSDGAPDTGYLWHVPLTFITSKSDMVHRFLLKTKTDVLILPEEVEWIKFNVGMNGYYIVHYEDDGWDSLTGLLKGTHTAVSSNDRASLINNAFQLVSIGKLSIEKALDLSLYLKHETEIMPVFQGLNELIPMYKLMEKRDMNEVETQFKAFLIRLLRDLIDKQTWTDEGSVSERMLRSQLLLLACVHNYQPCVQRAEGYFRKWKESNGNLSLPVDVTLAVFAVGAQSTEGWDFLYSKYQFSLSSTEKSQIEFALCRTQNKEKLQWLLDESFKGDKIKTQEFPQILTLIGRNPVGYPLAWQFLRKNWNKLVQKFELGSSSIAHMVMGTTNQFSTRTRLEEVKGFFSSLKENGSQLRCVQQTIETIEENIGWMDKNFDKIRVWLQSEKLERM
Chain of FAD-linked sulfhydryl oxidase ALR (P55789 whole entry): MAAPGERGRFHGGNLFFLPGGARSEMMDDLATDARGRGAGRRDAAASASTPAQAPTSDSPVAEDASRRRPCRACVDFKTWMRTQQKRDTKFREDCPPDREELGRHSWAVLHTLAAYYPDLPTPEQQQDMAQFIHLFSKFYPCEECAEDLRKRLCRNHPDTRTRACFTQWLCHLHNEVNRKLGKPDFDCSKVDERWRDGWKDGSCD
Chain of Disintegrin and metalloproteinase domain-containing protein 17 (P78536 whole entry, the tested form may be a part): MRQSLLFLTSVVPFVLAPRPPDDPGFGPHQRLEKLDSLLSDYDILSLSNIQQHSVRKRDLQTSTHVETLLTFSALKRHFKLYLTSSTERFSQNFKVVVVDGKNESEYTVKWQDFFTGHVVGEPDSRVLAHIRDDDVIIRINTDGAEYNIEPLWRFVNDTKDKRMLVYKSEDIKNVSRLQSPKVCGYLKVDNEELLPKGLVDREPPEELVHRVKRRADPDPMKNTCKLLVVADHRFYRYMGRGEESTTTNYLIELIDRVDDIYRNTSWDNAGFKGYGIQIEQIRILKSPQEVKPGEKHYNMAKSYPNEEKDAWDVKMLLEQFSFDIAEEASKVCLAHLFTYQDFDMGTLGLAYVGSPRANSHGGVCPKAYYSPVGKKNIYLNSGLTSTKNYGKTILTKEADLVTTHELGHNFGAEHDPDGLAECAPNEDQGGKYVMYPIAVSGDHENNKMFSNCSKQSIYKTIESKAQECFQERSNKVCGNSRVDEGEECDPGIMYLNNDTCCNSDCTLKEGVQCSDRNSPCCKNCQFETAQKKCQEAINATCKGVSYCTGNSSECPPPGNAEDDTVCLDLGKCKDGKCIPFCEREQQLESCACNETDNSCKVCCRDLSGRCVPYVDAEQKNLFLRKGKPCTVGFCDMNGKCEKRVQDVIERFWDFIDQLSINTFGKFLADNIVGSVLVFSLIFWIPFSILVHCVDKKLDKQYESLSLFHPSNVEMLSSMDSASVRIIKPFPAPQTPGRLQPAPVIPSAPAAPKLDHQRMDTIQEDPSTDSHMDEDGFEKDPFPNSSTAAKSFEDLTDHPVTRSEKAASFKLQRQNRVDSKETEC
Chain of Paired box protein Pax-8 (Q06710 whole entry): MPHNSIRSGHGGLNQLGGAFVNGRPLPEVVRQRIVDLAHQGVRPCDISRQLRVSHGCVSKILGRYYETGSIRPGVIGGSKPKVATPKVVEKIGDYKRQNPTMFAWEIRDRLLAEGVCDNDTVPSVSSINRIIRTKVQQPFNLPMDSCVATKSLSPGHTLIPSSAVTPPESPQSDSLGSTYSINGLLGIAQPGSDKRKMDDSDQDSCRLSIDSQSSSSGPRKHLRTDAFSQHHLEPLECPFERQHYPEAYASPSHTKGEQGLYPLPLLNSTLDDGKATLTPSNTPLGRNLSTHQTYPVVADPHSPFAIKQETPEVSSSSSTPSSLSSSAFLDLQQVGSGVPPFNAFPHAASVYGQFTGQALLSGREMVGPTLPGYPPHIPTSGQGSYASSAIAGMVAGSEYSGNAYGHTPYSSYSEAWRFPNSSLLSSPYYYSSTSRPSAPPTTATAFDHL
Chain of Cytochrome P450 2C19 (P33261 whole entry): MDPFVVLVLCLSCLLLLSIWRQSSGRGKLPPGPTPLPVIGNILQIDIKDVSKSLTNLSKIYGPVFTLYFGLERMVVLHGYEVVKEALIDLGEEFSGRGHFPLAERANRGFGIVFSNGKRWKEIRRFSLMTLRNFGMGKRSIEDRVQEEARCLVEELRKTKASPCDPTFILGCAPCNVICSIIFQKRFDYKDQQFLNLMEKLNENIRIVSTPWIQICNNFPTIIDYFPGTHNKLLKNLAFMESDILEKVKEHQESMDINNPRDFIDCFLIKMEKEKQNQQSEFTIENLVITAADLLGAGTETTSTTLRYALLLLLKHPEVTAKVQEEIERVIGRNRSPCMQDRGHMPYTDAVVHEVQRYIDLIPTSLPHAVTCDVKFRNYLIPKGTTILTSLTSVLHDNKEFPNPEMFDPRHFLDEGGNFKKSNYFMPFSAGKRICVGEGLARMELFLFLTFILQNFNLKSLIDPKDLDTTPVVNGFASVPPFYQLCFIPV
Chain of Cytochrome P450 2C9 (P11712 whole entry): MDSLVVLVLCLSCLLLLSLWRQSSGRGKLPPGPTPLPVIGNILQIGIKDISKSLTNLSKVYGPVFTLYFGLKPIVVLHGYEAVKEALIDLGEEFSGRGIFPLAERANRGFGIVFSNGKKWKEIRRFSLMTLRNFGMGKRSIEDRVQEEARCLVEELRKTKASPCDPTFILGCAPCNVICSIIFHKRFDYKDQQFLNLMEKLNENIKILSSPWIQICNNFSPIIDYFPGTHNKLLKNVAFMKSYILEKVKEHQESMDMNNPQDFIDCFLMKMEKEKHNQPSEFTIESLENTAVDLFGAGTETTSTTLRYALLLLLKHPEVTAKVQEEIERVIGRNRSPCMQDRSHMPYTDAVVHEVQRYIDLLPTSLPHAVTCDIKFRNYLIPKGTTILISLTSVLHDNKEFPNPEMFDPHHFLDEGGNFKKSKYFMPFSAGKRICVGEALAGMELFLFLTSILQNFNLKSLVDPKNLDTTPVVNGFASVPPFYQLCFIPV

In the case of `CCOC(=O)c1[nH]c2cc3c(cc2c1NC(=O)CN1CCc2ccccc2C1)OCO3`, the IC50 [1] is reported as 0.485 µM (active), the AC50 (Cytochrome P450 2C9) is reported as 7.94 µM (inconclusive) and the AC50 (Cytochrome P450 2C19) is reported as 2.24 µM (inconclusive).

In the case of `CS(=O)(=O)NN1C(=O)c2ccccc2NC1c1ccccc1` (stereo not given), the IC50 [1] is reported as > 1.11 µM (active).

In the case of `C/C(=N\NC(=O)OC(C)(C)C)c1ccc[nH]1`, the EC50 [2] is reported as > 67.6 µM (inactive).

In the case of `CN1C(=O)c2cc(NC(=O)c3ccc(C(F)(F)F)cc3)ccc2OC[C@@H]2O[C@@H](CC(=O)NCc3ccc4c(c3)OCO4)CC[C@H]21`, the AC50 [3] is reported as 20.3 µM (active).

With `Cc1ccc2c(Cl)c(C(=O)NC3CC3)sc2c1` the IC50 (cells [4]) was > 67.5 µM (inactive) and the IC50 [5] was > 7.49 µM (active).

In the case of `C=CCC[C@H](Cc1ccc(F)cc1)C(=O)OC[C@@H](Cc1c[nH]c2ccccc12)NC(=O)[C@H](CC=C)CC(=O)N(CCO)Cc1ccccc1`, the IC50 [6] is reported as > 69.5 µM (inactive), the AC50 [7] is reported as 29 µM (active) and the AC50 [8] is reported as 30.9 µM (active). For the same molecule, the AC50 [9] was 8.66 µM (active), the AC50 [10] was 3.42 µM (active) and the IC50 [11] was > 7.72 µM (active).

For `COc1c(O)cc2oc(-c3ccc(O)cc3)cc(=O)c2c1O` [HISPIDULIN], the IC50 (cells [4]) was > 67.5 µM (inactive), the AC50 [12] was 0.572 µM (active) and the IC50 [5] was > 0.834 µM (active).

With `C[C@H](CO)N1C[C@H](C)[C@H](CN(C)Cc2ccc3c(c2)OCO3)OCCCC[C@H](C)Oc2ccc(NC(=O)Nc3ccc(C(F)(F)F)cc3)cc2C1=O` the AC50 [13] was 46.4 µM (active) and the AC50 (Paired box protein Pax-8) was 9.15 µM (active).

In the case of `CCc1cc(=O)oc2c(CNCc3c(F)cccc3Cl)c(O)ccc12`, the AC50 [14] is reported as 54.9 µM (active), the AC50 [15] is reported as 8.53 µM (active) and the AC50 (HEK293) is reported as 230 µM (active).

For `O=c1c2ccccc2cnn1-c1ccc(Br)cc1`, the EC50 (cells [16]) was > 67.5 µM (inactive) and the EC50 [17] was > 67.5 µM (inactive).

For `O=C(NCCc1ccncc1)[C@@H]1N[C@@H]2c3ccc(/C=C/c4ccccc4)c(=O)n3C[C@@H]2[C@H]1CO`, the AC50 [15] was 13 µM (active).
